These are literature values, as cited in patent publication US20050090518A1 (Nastech Pharmaceutical Company Inc., priority 2003, published 2005).

For this data set the following is noted: intranasal administration.

Molecules are shown by their SMILES.

As for `CN1CCc2cccc3c2[C@H]1Cc1ccc(O)c(O)c1-3` [Apomorphine], the “abolition of "off state" events” value is 95%, the duration of efficacy result is “less than one” and the onset of action was 10 min.
